Test results: US20260151398A1, “COMPOUNDS FOR REDUCING CHOLESTEROL AND TREATING LIVER AND KIDNEY DISEASE” (McMaster University, priority 2021, published 2026)

Experiments:
PCSK9 [1] = assay: Secreted PCSK9 levels in HepG2 cells (ELISA); format: cell-based, human; details: for PCSK9 mRNA expression and secreted levels with increasing doses / reduction of secreted PCSK9 levels compared to CF at the same dose: HepG2; for efficacy for PCSK9 inhibition compared with caffeine: initial screening; for PCSK9 reduction (100 nM): Table 6, HepG2 cells, 24 h, 100 nM as printed in the cell
Experimental: (§1) HuH7 and HepG2 cells were routinely grown in complete Dulbecco's Modified Eagle's Medium (Gibco, Thermofisher Scientific) supplemented with 10% fetal bovine serum (Sigma-Aldrich) and 100 U/ml of penicillin and streptomycin (Sigma-Aldrich). […] All cell treatments were carried out for 24 h unless otherwise stated. Cells were transfected with a cocktail consisting of plasmid DNA (1 μg), X-tremeGENE HP (3 μl; Thermofisher Scientific) and opti-MEM (100 μl; Thermofischer Scientific) per 1 ml complete medium containing plated cells. Human PCSK9 was overexpressed using the bicistronic pIRES-EGFP plasmid; calnexin using the mPA-GFP-N1 plasmid. To block the expression of GRP78 and CD36, siGENOME smartpool siRNA was purchased from GE Dharmacon (M-008198-02 and L-010206-00-0005 respectively) and transfected using lipofectamine RNAiMAX as per manufacturer's protocol.
(§2) Secreted PCSK9 levels were assessed directly in cell culture medium of cells grown in FBS-free medium for 24 h or in the serum isolated from either mice or human subjects. Mouse PCSK9 was measured using the Quantikinine® ELISA kit (#MCP900, R&D Systems) and human PCSK9 using the PCSK9 Quantikinine® ELISA kit (#DCP900, R&D Systems). Serum ApoB levels were also quantified using ELISAs (#DAPB00, R&D Systems). Serum samples were diluted as per manufacturer's instructions.
CF, however, is a well-characterized compound having several health benefits with few known adverse effects. Achieving an optimal level of PCSK9 inhibition absent of the neuro-excitatory effect of CF, however, may be a challenge for the long-term clinical application of these findings. […] See Table 6 for the structure activity relationships of several other known xanthine-based compounds explored at varying doses in HepG2 cells for 24 h.

PCSK9 [2] = assay: PCSK9 secretion from cultured and primary hepatocytes (ELISA of medium); format: cell-based, human, mouse; details: ELISA of medium
Experimental: as §1, §2
All animal studies were carried out in 8 h-fasted male wild-type, Pcsk9^−/− or Ampkβ1^−/− mice on the C57BL/6J background. CF (25-100 mg/kg-8 h) and CDN (50 mg/kg) treatments were administered via intraperitoneal injection unless specified otherwise. Primary mouse hepatocytes were isolated using a two-step process with EGTA ([…] in HEPES buffer, Sigma Aldrich) and collagenase (0.05% in HEPES buffer, Sigma Aldrich) in 12-week-old male mice on the C57BL/6J background. Cells were then washed, centrifuged, and plated following isolation in cell strainers. Hepatosure® 100-donor pooled primary human hepatocytes were purchased from Xenotech. Primary hepatocytes were regularly grown in William's E medium (Gibco, Thermo Fisher Scientific) containing 10% fetal bovine serum, 100 IU/ml penicillin, and 100 µg/ml streptomycin.

HepG2 cells = assay: DiI-LDL uptake assay in HepG2 cells; format: cell-based, human; details: for DiI-LDL cholesterol uptake: HepG2, 10 μM
Experimental: During the last 5 h of treatment (h 19 to 24) cells were exposed to DiI-LDL (10 μg/ml) and then washed with two changes of pre-warmed (37° C.) HBSS containing 20 mM HEPES prior to analysis.
(§3) The uptake and accumulation of DiI-LDL was then quantified using a fluorescent spectrophotometer (Molecular Devices). […] Live-cell staining of the LDLR was also performed in HepG2 cells exposed to DiI-LDL (FIG. 11 D).

PCSK9 [3] = assay: PCSK9 expression in hepatocytes (immunoblot, real-time PCR); format: cell-based, human, mouse; details: HuH7; ryanodine 10 μM, CDN 100 μM, 2 APB 50 μM; presence or absence of TG; 24 h
Experimental: as §1
(§4) Cells were washed in phosphate-buffered saline (PBS), lysed in 4× SDS-PAGE lysis buffer and separated on 7-10% polyacrylamide gels in denaturing conditions. Gels were transferred to nitrocellulose membranes using the BioRad mini trans-blot system, blocked in 5% skim milk in tris-buffered saline (TBS) for 1 h and incubated in primary antibody overnight for 16 h at 4° C. Membranes were then exposed to horse radish peroxidase conjugated secondary antibodies and visualized using EZ-ECL chemiluminescent reagent (Froggabio). Band intensities were quantified using ImageJ software ([…]) against membranes reprobed for housekeeping proteins.
(§5) RNA purification/isolation was performed using RNeasy mini kits (Qiagen) and normalized to 2 μg RNA using a NanoDrop® spectrophotometer. Samples were then reverse transcribed into cDNA using Superscript Vilo cDNA Synthesis kit (Thermofisher Scientific). Real-time PCR was executed with Fast SYBR Green (Thermo Fisher Scientific) using the ΔΔct method on the ViiA7 real-time PCR platform (Thermofisher Scientific).
Cultured immortalized hepatocytes known to express and secrete PCSK9 (Lebeau, P., et al., 2017), including HuH7 and HepG2 cells, as well as primary mouse- and human-hepatocytes (PMH and PHH, respectively), were treated with CF for 24 h and assessed for PCSK9 expression via immunoblots and real-time PCR (FIG. 1 A to D). […] Given that sterol deprivation represents another well-established promoter of SREBP2 activation (Lebeau, P., et al., 2017), cells were also treated with CF in the presence and absence of U18666A (U18) that depletes intracellular sterols. […] Next, HepG2 cells were treated with an increasing dose of CF.

[4] = system: ER stress markers (GRP78, ATF4, pPERK, IRE1α, sXBP1, ATF6); assay: ER stress / UPR readouts in hepatocytes; format: cell-based, human; details: HuH7; with TG 100 nM
Experimental: as §4
Following treatment, live cells were incubated in complete DMEM containing 5 μM Thioflavin-T (ThT; Thermofisher Scientific) for 15 minutes. Cells were then fixed in 4% paraformaldehyde and mounted with permafluor. Fluorescent staining was visualized using the EVOS FL colour system at either 20 or 40× magnification.
as §5
Because ER Ca^2+ depletion induces a compensatory unfolded protein response (UPR), it was also postulated that CF may attenuate UPR marker expression by increasing ER Ca^2+ levels. […] Reactive oxygen species production, a process known to occur during conditions of ER stress, was also attenuated by CF (FIG. 9 H). […] While increasing the protein binding ability of chaperones, such as GRP78, CF also attenuates SREBP2-driven gene expression (FIG. 7 L).

SREBP2 = SREBP2 expression and activation in hepatocytes (real-time PCR, SRE-GFP reporter, immunoblot, immunofluorescence); format: cell-based, human, mouse; details: HepG2, real-time PCR
Experimental: as §4
Cells were plated in 4-well chamber slides and incubated in complete DMEM for 24 h and exposed to treatments 24 h later for an additional 24 h. Cells were fixed with 4% paraformaldehyde for 30 minutes and washed with either non-permeabilizing, or permeabilizing PBS containing 0.025% Triton-X. Cells were then blocked with 1% bovine serum albumin (BSA) for 30 minutes and stained with anti-GFP antibody for 1 h in PBS containing 1% BSA. Afterwards, cells were washed and incubated with Alexa 488 fluorescently-labelled secondary antibodies (Thermofisher Scientific), as well as the DAPI nuclear stain. Slides were then mounted with permafluor and visualized using the EVOS FL colour imaging system at either 20 or 40× magnification.
as §5
Therefore, the effect of CF on TG-; induced SREBP2 activation was examined. […] SREBP2 activity was then examined at the protein level in HuH7 cells transfected with a plasmid encoding GFP driven by the sterol regulatory element (SRE-GFP; FIG. 2E to G). […] GFP expression was also visualized via immunofluorescent staining and quantified using ImageJ Software.

LDLR = LDLR / CD36 expression in cultured hepatocytes; format: cell-based, human; details: HepG2, 10 μM, immunofluorescent staining
Text: as §4, with “Gels were transferred to nitrocellulose membranes using the BioRad mini trans-blot system, blocked in 5% skim milk in tris-buffered saline (TBS) for 1 h and incubated in primary antibody overnight for 16 h at 4° C.” left out
Slides were then mounted with permafluor and visualized using the EVOS FL colour imaging system at either 20 or 40× magnification.
as §5, §3

HepG2 hepatocytes = assay: LDH cytotoxicity assay in HepG2 hepatocytes; format: cell-based, human; details: cultured HepG2 hepatocytes
Experimental: Secreted PCSK9 levels were assessed using ELISAs and mRNA transcript via real-time PCR. […] Secreted PCSK9, as well as PCSK9 mRNA and SREBP2 mRNA were assessed in these cells. (E) The cytotoxicity of these agents was examined using an LDH assay. […] (G) The uptake of DiI-LDL was also quantified in these cells using a spectrophotometer. Values are presented as the mean and error bars as SD. *, p<0.05 vs. vehicle; NS, non-significant.

With `Cn1c(=O)c2c(nc(/C=C/c3cccc(Cl)c3)n2C)n(C)c1=O` [8CC, 8-(3-Chlorostyryl) CF] the “PCSK9 mRNA expression and secreted levels with increasing doses” value (PCSK9 [1]) was “dose-dependent reduction”.

With `CCN(CC)CCO[C@H]1CC[C@@]2(C)C(=CC[C@@H]3[C@@H]2CC[C@]2(C)C(=O)CC[C@@H]32)C1` [U18, U18666A] the “PCSK9 secretion with Ca2+-modulating agents” value (PCSK9 [2]) was “increased PCSK9 secretion” and the “LDLc (DiI-LDL) uptake” value (HepG2 cells; HepG2, 24 h treatment, DiI-LDL 5 h) was “reduced LDLc uptake”.

For `NCCOB(c1ccccc1)c1ccccc1` [2 APB, 2-APB], the “SREBP2 and PCSK9 mRNA transcript level” value (PCSK9 [3]) was “blocked SREBP2 and PCSK9 at the mRNA transcript level”, the “PCSK9 secretion with Ca2+-modulating agents” value (PCSK9 [2]) was “blocked PCSK9 secretion” and the “TG-induced GRP78 expression” value [4] was “blocked TG-induced expression”.

With `Cn1c(=O)c2[nH]c(C3CCCC3)nc2n(C)c1=O` [8CD, 8-cyclopentyl-1,3-dimethylxanthine] the “PCSK9 mRNA expression and secreted levels with increasing doses” value (PCSK9 [1]) was “dose-dependent reduction”.

`Cn1c(=O)c2[nH]c(-c3cc(F)c(F)cc3F)nc2n(C)c1=O` [Ia-1] was tested, and the “reduction of secreted PCSK9 levels compared to CF at the same dose” value (PCSK9 [1]) was 2 fold, the “efficacy for PCSK9 inhibition compared with caffeine” value (PCSK9 [1]) was “significantly greater efficacy for PCSK9 inhibition than caffeine” and the “PCSK9 and SREBP2 mRNA” value (SREBP2) was “antagonism of SREBP2 reduced de novo synthesis of PCSK9”. The DiI-LDL cholesterol uptake (HepG2 cells) was “significant increase”, the “cell-surface LDLR expression” value (LDLR) was “significant increase in LDLR expression” and the “cytotoxicity (LDH assay)” value (HepG2 hepatocytes) was “did not exhibit cytotoxic properties”.

In the case of `Cn1c(=O)[nH]c2ncn(C)c2c1=O` [paraxanthine], the “PCSK9 mRNA expression and secreted levels with increasing doses” value (PCSK9 [1]) is reported as “dose-dependent reduction”.

With `Cn1c(=O)c2[nH]c(-c3ccc([N+](=O)[O-])cc3)nc2n(C)c1=O` [I-10] the “PCSK9 reduction (100 nM)” value (PCSK9 [1]) was 0.93 (100 nM).

With `CCCn1c(=O)[nH]c2nc(-c3ccc(S(=O)(=O)N4CCN(c5ccc(Cl)cc5)CC4)cc3)[nH]c2c1=O` [PSB603] the “PCSK9 mRNA expression and secreted levels with increasing doses” value (PCSK9 [1]) was “dose-dependent reduction”.

`Cn1c(=O)c2[nH]c(-c3ccncc3)nc2n(C)c1=O` [I-9] was tested, and the “PCSK9 reduction (100 nM)” value (PCSK9 [1]) was 0.86 (100 nM).

`CCCCCCCC/C=C\CCCCCCCC(=O)ON1C(=O)CC(S(=O)(=O)O)C1=O` (stereo not shown) [sulfosuccinimidyl oleate] was tested, and the “effect of CD36 inhibition on CF-mediated DiI-LDL uptake” value (HepG2 cells; HepG2) was “failed to affect CF-mediated DiI-LDL uptake”.

For `Cn1cnc2c1c(=O)[nH]c(=O)n2C` [theobromine], the “PCSK9 mRNA expression and secreted levels with increasing doses” value (PCSK9 [1]) was “dose-dependent reduction”.

In the case of `Cn1c(=O)c2[nH]c(-c3ccc([N+](=O)[O-])o3)nc2n(C)c1=O` [Ia-7], the “reduction of secreted PCSK9 levels compared to CF at the same dose” value (PCSK9 [1]) is reported as 2 fold, the “efficacy for PCSK9 inhibition compared with caffeine” value (PCSK9 [1]) is reported as “significantly greater efficacy for PCSK9 inhibition than caffeine” and the “PCSK9 and SREBP2 mRNA” value (SREBP2) is reported as “antagonism of SREBP2 reduced de novo synthesis of PCSK9”. For the same compound, the DiI-LDL cholesterol uptake (HepG2 cells) was “significant increase”, the “cell-surface LDLR expression” value (LDLR) was “significant increase in LDLR expression” and the “cytotoxicity (LDH assay)” value (HepG2 hepatocytes) was “did not exhibit cytotoxic properties”.
